Data taken from patent publication US20240190821A1, “SULFONAMIDE SUBSTITUTED N-(1H-INDOL-7-YL)BENZENESULFONAMIDES AND USES THEREOF” (Triana Biomedicines, Inc., priority 2021, published 2024).
pEC50, pIC50: −log10 of the molar value. Where two headings read alike, the source gives them in different places.

What was measured:
[1] = molecular target: DCAF15 (Homo sapiens, UniProt Q66K64); assay: Binary interaction between compounds and DCAF15, HTRF competition assay; format: binding
Procedure: DCAF15 interactions with test compounds were monitored using HTRF competition assays (Cisbio, Bedford, MA). […] These two solutions were mixed and incubated for 15 min at room temperature. 9.8 ul of the tracer solution and 10 ul of the DCAF15/mAb Anti-6His-Eu cryptate Gold mixture were added sequentially to each well in the assay plate. Reaction mixtures with no DCAF15 added were included as […] controls. […] Binding was estimated based on ratiometric analysis and titration curves were generated in GraphPad Prism (7.00, GraphPad, La Jolla, CA).

[2] = molecular target: T1, DCAF15-RBM39 ternary complex (Homo sapiens, UniProt Q14498+Q66K64); assay: Compound-induced DCAF15-RBM39 ternary complex formation, AlphaLISA; format: biochemical
T1 construct: (RRM2)
Procedure: Compound-induced DCAF15-RBM39 ternary complex formation was monitored using AlphaLISA® assays (Perkin Elmer, Waltham, MA). […] 9.8 ul of this protein mixture was then mixed with the compounds in the assay plate and incubated for one hour at room temperature. Reaction mixtures with no compounds added were included as negative controls, while a His-tagged and biotinylated GST protein was included to track general assay performance. […] The beads were then added to the assay plate sequentially with incubation at room temperature for 1-2 hours after each addition.

[3] = HTRF competition with Alexa Fluor 647 tracer, His-tagged DCAF15 complex, read-out: DCAF15 IC50
[4] = AlphaLISA, His-tagged DCAF15 complex and biotin-carrying RBM39, read-out: Ternary-RBM39 (RRM2) EC50

Chain of DCAF15 (Q66K64 whole entry): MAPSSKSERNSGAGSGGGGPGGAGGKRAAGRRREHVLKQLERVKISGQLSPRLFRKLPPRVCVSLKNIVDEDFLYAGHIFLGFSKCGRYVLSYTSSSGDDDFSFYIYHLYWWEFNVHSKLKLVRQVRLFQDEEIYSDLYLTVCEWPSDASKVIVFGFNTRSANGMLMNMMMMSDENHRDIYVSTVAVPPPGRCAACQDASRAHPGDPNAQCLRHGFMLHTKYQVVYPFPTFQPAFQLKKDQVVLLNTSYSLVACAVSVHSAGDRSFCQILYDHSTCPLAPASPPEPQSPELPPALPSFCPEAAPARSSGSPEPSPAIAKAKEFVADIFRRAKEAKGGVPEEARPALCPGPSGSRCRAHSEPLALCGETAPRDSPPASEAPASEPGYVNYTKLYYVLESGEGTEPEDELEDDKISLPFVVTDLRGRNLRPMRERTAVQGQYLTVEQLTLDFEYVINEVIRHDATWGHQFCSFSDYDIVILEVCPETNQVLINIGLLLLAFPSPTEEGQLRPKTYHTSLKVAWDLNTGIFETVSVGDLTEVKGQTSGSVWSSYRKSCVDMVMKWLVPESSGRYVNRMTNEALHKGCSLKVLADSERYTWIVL
Chain of DCAF15 (Q16531 whole entry partner): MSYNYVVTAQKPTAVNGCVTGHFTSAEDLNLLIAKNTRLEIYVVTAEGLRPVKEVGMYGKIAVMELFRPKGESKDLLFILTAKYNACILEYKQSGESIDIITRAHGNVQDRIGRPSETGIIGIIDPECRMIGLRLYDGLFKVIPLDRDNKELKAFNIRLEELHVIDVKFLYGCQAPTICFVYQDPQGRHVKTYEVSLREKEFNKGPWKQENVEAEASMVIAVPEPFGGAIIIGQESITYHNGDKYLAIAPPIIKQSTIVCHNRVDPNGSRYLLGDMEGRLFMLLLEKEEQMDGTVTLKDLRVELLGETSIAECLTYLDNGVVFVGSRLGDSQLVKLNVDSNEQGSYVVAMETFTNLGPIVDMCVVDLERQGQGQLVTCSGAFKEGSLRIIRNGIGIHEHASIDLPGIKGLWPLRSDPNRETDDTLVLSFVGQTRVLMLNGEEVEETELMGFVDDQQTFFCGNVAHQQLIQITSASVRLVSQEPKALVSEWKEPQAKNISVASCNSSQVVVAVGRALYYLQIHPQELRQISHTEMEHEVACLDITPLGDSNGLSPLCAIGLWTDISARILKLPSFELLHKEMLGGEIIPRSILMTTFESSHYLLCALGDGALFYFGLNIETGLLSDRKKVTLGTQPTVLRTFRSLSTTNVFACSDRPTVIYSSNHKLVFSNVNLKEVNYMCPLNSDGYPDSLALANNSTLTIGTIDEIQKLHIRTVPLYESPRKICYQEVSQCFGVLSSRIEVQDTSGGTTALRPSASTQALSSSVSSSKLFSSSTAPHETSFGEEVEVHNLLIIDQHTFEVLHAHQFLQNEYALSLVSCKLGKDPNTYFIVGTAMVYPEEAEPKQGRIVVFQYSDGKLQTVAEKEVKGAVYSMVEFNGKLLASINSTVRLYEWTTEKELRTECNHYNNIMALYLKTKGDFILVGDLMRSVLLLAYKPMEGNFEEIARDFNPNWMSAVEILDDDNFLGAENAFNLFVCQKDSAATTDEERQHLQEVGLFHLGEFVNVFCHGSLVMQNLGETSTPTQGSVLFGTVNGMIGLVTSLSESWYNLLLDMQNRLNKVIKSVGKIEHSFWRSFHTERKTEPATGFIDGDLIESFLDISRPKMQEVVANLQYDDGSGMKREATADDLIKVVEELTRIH
T1 sequence (Q66K64 whole entry): as the sequence (Q66K64 whole entry) above
T1 sequence (Q14498 250-328 limits assumed): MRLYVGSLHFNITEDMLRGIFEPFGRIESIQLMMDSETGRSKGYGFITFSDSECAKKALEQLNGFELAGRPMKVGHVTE
T1 sequence (Q16531 whole entry partner): as the sequence (Q16531 whole entry partner) above

| SMILES | pIC50 [1, 3] | pEC50 [2, 4] | pIC50 [1] | pEC50 [2] |
| --- | --- | --- | --- | --- |
| O=S(=O)(F)c1ccc(S(=O)(=O)Nc2ccc(Cl)c3c(Cl)c[nH]c23)cc1 [Compound 72, 4-(N-(3,4-dichloro-1H-indol-7-yl)sulfamoyl)benzenesulfonyl fluoride] |  |  | > 4.70 | > 6.00 |
| O=S(=O)(Nc1ccc(Cl)c2c(Cl)c[nH]c12)c1ccc(S(=O)(=O)N2CCC(Oc3cccnc3)CC2)cc1 [Compound 39, N-(3,4-dichloro-1H-indol-7-yl)-4-((4-(pyridin-3-yloxy)piperidin-1-yl)sulfonyl)benzene sulfonamide] | > 4.70 | > 5.30 |  |  |
| Cc1ccc(NS(=O)(=O)c2ccc(S(=O)(=O)N3CCN4CCCC4C3)cc2)c2[nH]cc(C#N)c12 (centres unmarked) [Compound 91, N-(3-cyano-4-methyl-1H-indol-7-yl)-4-((hexahydropyrrolo[1,2-a]pyrazin-2(1H)-yl)sulfonyl)benzenesulfonamide] | > 4.00 | > 6.00 |  |  |
| N#Cc1ccc(NS(=O)(=O)c2ccc(S(=O)(=O)N3CCNCC3)cc2)c2[nH]cc(Cl)c12 [Compound 88, N-(3-chloro-4-cyano-1H-indol-7-yl)-4-(piperazin-1-ylsulfonyl)benzenesulfonamide] | > 4.70 | > 6.00 |  |  |
| CCN=S(=O)(c1ccc(S(=O)(=O)Nc2ccc(Cl)c3c(Cl)c[nH]c23)cc1)N1CCNCC1 (centres unmarked) [Compound 69, N-(3,4-dichloro-1H-indol-7-yl)-4-(N-ethylpiperazine-1-sulfonimidoyl)benzenesulfonamide] | > 4.00 | > 6.00 |  |  |
| Cc1ccc(NS(=O)(=O)c2ccc(S(=O)(=O)N3C[C@H]4C[C@@H](C3)N4)cc2)c2[nH]cc(C#N)c12 [Compound 94, 4-(((1R,5S)-3,6-diazabicyclo[3.1.1]heptan-3-yl)sulfonyl)-N-(3-cyano-4-methyl-1H-indol-7-yl)benzenesulfonamide] | > 4.70 | > 6.00 |  |  |
| CN1CCC(S(=O)(=O)Nc2ccc(S(=O)(=O)Nc3ccc(Cl)c4c(Cl)c[nH]c34)cc2)CC1 [Compound 64, N-(4-(N-(3,4-dichloro-1H-indol-7-yl)sulfamoyl)phenyl)-1-methylpiperidine-4-sulfonamide] | > 4.00 | > 5.30 |  |  |
| O=C1CCC(NS(=O)(=O)c2ccc(S(=O)(=O)Nc3ccc(Cl)c4c(Cl)c[nH]c34)c(F)c2)CN1 (centres unmarked) [compound 105] | > 4.70 | > 4.70 |  |  |
| CN(C)C(=O)c1ccc(CCNS(=O)(=O)c2ccc(S(=O)(=O)Nc3ccc(Cl)c4c(Cl)c[nH]c34)cc2)cc1 [Compound 23, 4-(2-((4-(N-(3,4-dichloro-1H-indol-7-yl)sulfamoyl)pheny 1)sulfonamido)ethyl)-N,N-dimethylbenzamide] | > 4.70 | > 5.30 |  |  |
| O=S(=O)(Nc1ccc(Cl)c2c(Cl)c[nH]c12)c1ccc(S(=O)(=O)N2CCc3[nH]c(-c4ccccc4)nc3C2)cc1 [Compound 54, N-(3,4-dichloro-1H-indol-7-yl)-4-((2-phenyl-1,4,6,7-tetrahydro-5H-imidazo[4,5-c]pyridin-5-yl)sulfonyl) benzene sulfonamide] | > 4.00 | > 5.30 |  |  |
| Cc1ccnc(CNS(=O)(=O)c2ccc(S(=O)(=O)Nc3ccc(Cl)c4c(Cl)c[nH]c34)cc2)c1 [Compound 16, N^1-(3,4-dichloro-1H-indol-7-yl)-N^4-((4-methylpyridin-2-yl)methyl)benzene-1,4-disulfonamide] | > 5.30 | > 4.70 |  |  |
| Cc1ccnc(C(NS(=O)(=O)c2ccc(S(=O)(=O)Nc3ccc(Cl)c4c(Cl)c[nH]c34)cc2)C2CC2)c1 (centres unmarked) [Compound 18, N^1-(cyclopropyl(4-methylpyridin-2-yl)methyl)-N^4-(3,4-dichloro-1H-indol-7-yl)benzene-1,4-disulfonamide] | > 4.70 | > 5.30 |  |  |
| CCCN(c1ccc(S(=O)(=O)Nc2ccc(Cl)c3c(Cl)c[nH]c23)cc1)S(=O)(=O)C1CCNCC1 [Compound 63, N-(4-(N-(3,4-dichloro-1H-indol-7-yl)sulfamoyl)phenyl)-N-propylpiperidine-4-sulfonamide] | > 5.30 | > 6.00 |  |  |
| O=S(=O)(Nc1ccc(Cl)c2c(Cl)c[nH]c12)c1ccc(S(=O)(=O)N2CCN(CCOCCc3ccccn3)CC2)cc1 [Compound 51, N-(3,4-dichloro-1H-indol-7-yl)-4-((4-(2-(2-(pyridin-2-yl)ethoxy)ethyl)piperazin-1-yl)sulfonyl)benzenesulfonamide] |  |  | > 4.70 | > 6.00 |

Now from value to compound, other results behind:

| pIC50 [1, 3] | pEC50 [2, 4] | SMILES | pIC50 [1] | pEC50 [2] |
| --- | --- | --- | --- | --- |
| > 5.30 | > 6.00 | CCCN(c1ccc(S(=O)(=O)Nc2ccc(Cl)c3c(Cl)c[nH]c23)cc1)S(=O)(=O)N1CCN(C)CC1 [Compound 66, N-(4-(N-(3,4-dichloro-1H-indol-7-yl)sulfamoyl)phenyl)-4-methyl-N-propylpiperazine-1-sulfonamide] |  |  |
| > 5.30 | > 6.00 | Cc1ccc(NS(=O)(=O)c2ccc(S(=O)(=O)N3CCC(N)CC3)cc2)c2[nH]cc(C#N)c12 [Compound 81, 4-((4-aminopiperidin-1-yl)sulfonyl)-N-(3-cyano-4-methyl-1H-indol-7-yl) benzenesulfonamide] |  |  |
| > 5.30 | > 4.70 | Cc1cc(CNS(=O)(=O)c2ccc(S(=O)(=O)Nc3ccc(Cl)c4c(Cl)c[nH]c34)cc2)nn1C [Compound 15, N^1-(3,4-dichloro-1H-indol-7-y1)-N^4-((1,5-dimethyl-1H-pyrazol-3-yl)methyl)benzene-1,4-disulfonamide] |  |  |
| > 5.30 | > 6.00 | O=C1NCCCCC1NS(=O)(=O)c1ccc(S(=O)(=O)Nc2ccc(Cl)c3c(Cl)c[nH]c23)cc1 (centres unmarked) [Compound 33, N^1-(3,4-dichloro-1H-indol-7-yl)-N^4-(2-oxoazepan-3-yl)benzene-1,4-disulfonamide] |  |  |
| > 5.30 | > 6.00 | O=C(CCCNS(=O)(=O)c1ccc(S(=O)(=O)Nc2ccc(Cl)c3c(Cl)c[nH]c23)cc1)N1CCCC1 [Compound 27, N^1-(3,4-dichloro-1H-indol-7-yl)-N^4-(4-oxo-4-(pyrrolidin-1-yl)butyl)benzene-1,4-disulfonamide] |  |  |
| > 5.30 | > 6.00 | O=S(=O)(Nc1ccc(Cl)c2c(Cl)c[nH]c12)c1ccc(C(F)(F)C2CCNCC2)cc1 [Compound 70, N-(3,4-dichloro-1H-indol-7-yl)-4-(difluoro(piperidin-4-yl)methyl)benzene sulfonamide] |  |  |
| > 5.30 | > 6.00 | O=C1CCC(NS(=O)(=O)c2ccc(S(=O)(=O)Nc3ccc(Cl)c4c(Cl)c[nH]c34)cc2)CN1 (centres unmarked) [Compound 31, N^1-(3,4-dichloro-1H-indol-7-yl)-N^4-(6-oxopiperidin-3-yl)benzene-1,4-disulfonamide] |  |  |
| > 5.30 | > 6.00 | CC1CN(S(=O)(=O)c2ccc(S(=O)(=O)Nc3ccc(Cl)c4c(Cl)c[nH]c34)cc2)CCN1 (centres unmarked) [compound 109] |  |  |
| > 5.30 | > 6.00 | CCCN(C(C)=O)c1ccc(S(=O)(=O)Nc2ccc(Cl)c3c(Cl)c[nH]c23)cc1 [Compound 71, N-(4-(N-(3,4-dichloro-1H-indol-7-yl)sulfamoyl)phenyl)-N-propylacetamide] |  |  |
| > 5.30 | > 4.70 | CN(C)C(=O)CC(NS(=O)(=O)c1ccc(S(=O)(=O)Nc2ccc(Cl)c3c(Cl)c[nH]c23)cc1)c1ccccc1 (centres unmarked) [Compound 11, 3-((4-(N-(3,4-dichloro-1H-indol-7-yl)sulfamoyl)phenyl)sulfonamido)-N,N-dimethyl-3-phenylpropanamide] |  |  |
| > 5.30 | > 6.00 | O=S(=O)(Nc1ccc(Cl)c2c(Cl)c[nH]c12)c1ccc(S(=O)(=O)N2CCC(O)CC2)cc1 [Compound 38, N-(3,4-dichloro-1H-indol-7-yl)-4-((4-hydroxypiperidin-1-yl)sulfonyl)benzene sulfonamide] |  |  |
| > 5.30 | > 6.00 | CCCN(c1ccc(S(=O)(=O)Nc2ccc(Cl)c3c(Cl)c[nH]c23)cc1)S(=O)(=O)N1CCNCC1 [Compound 67, N-(4-(N-(3,4-dichloro-1H-indol-7-yl)sulfamoyl)phenyl)-N-propylpiperazine-1-sulfonamide] |  |  |
| > 5.30 | > 6.00 | CN1CC(CCNS(=O)(=O)c2ccc(S(=O)(=O)Nc3ccc(Cl)c4c(Cl)c[nH]c34)cc2)C1 [Compound 22, N^1-(3,4-dichloro-1H-indol-7-y1)-N^4-(2-(1-methylazetidin-3-yl)ethyl)benzene-1,4-disulfonamide] |  |  |
| > 5.30 | > 6.00 | CN1CC(NS(=O)(=O)c2ccc(S(=O)(=O)Nc3ccc(Cl)c4c(Cl)c[nH]c34)cc2)CCC1=O (centres unmarked) [Compound 32, N^1-(3,4-dichloro-1H-indol-7-yl)-N^4-(1-methyl-6-oxopiperidin-3-yl)benzene-1,4-disulfonamide] |  |  |
| > 5.30 | > 6.00 | CCCN(C(=O)CN)c1ccc(S(=O)(=O)Nc2ccc(Cl)c3c(Cl)c[nH]c23)cc1 [compound 131] |  |  |
| > 5.30 | > 6.00 | O=S(=O)(Nc1ccc(Cl)c2c(Cl)c[nH]c12)c1ccc(S(=O)(=O)N2CCNCC2)c(F)c1 [Compound 45, N-(3,4-dichloro-1H-indol-7-yl)-3-fluoro-4-(piperazin-1-ylsulfonyl)benzenesulfonamide] |  |  |
| > 5.30 | > 6.00 | Cc1ccc(NS(=O)(=O)c2ccc(S(=O)(=O)N(C)C3CCNCC3)cc2)c2[nH]cc(C#N)c12 [Compound 78, N^1-(3-cyano-4-methyl-1H-indol-7-yl)-N^4-methyl-N^4-(piperidin-4-yl) benzene-1,4-disulfonamide] |  |  |
